Measured values from PubChem BioAssay AID248 (DTP/NCI, 2004).
Several values for one entry are separate records, joined by “and”; a condition that tells them apart may be missing. Equal entries are not always repeated. Inconclusive results and toxic doses are left out. Cut-off read from the data, not from the text of the source: active = T/C of 150% or more; inactive = T/C below 125%.

Test system: L1210 leukemia ip in BDF1 mice, survival T/C
Test: NCI In Vivo Anticancer Drug Screen. Data for tumor model L1210 Leukemia (intraperitoneal) in B6D2F1 (BDF1) mice
Details: endpoint: mean survival time, higher = longer survival
In short: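 Antitumor effect is assessed in tumor-bearing animals. Survival in the compound arm is compared with a vehicle-dosed control arm and expressed as their quotient.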

[1] = dose: 100.0 mg/kg/injection, schedule: Q01DX001 (ip), vehicle: Klucel (hydroxypropylcellulose) (HPC)
[2] = dose: 100.0 mg/kg/injection, schedule: Q01DX009 (ip), vehicle: Klucel (hydroxypropylcellulose) (HPC)
[3] = dose: 100.0 mg/kg/injection, schedule: Q04DX003 (ip), vehicle: Klucel (hydroxypropylcellulose) (HPC)
[4] = dose: 200.0 mg/kg/injection, schedule: Q01DX001 (ip), vehicle: Klucel (hydroxypropylcellulose) (HPC)
[5] = dose: 200.0 mg/kg/injection, schedule: Q01DX009 (ip), vehicle: Klucel (hydroxypropylcellulose) (HPC)
[6] = dose: 200.0 mg/kg/injection, schedule: Q04DX003 (ip), vehicle: Klucel (hydroxypropylcellulose) (HPC)
[7] = dose: 400.0 mg/kg/injection, schedule: Q01DX001 (ip), vehicle: Klucel (hydroxypropylcellulose) (HPC)
[8] = dose: 400.0 mg/kg/injection, schedule: Q04DX003 (ip), vehicle: Klucel (hydroxypropylcellulose) (HPC)
[9] = dose: 100.0 mg/kg/injection, schedule: Q01DX009 (ip), vehicle: saline with Tween-80
[10] = dose: 100.0 mg/kg/injection, schedule: Q01DX001 (ip), vehicle: saline
[11] = dose: 200.0 mg/kg/injection, schedule: Q01DX001 (ip), vehicle: saline
[12] = dose: 400.0 mg/kg/injection, schedule: Q01DX001 (ip), vehicle: saline
[13] = dose: 400.0 mg/kg/injection, schedule: Q01DX001 (ip), vehicle: carboxymethylcellulose (CMC)
[14] = dose: 200.0 mg/kg/injection, schedule: Q01DX009 (ip), vehicle: saline with Tween-80
[15] = dose: 400.0 mg/kg/injection, schedule: Q01DX009 (ip), vehicle: saline with Tween-80

Measured: T/C

C=C(C)C1CC=C(C=O)CC1 (configuration not stated)
inactive: [1] 93 % of control | [2] 94 % of control | [3] 101 % of control | [4] 92 % of control | [5] 109 % of control | [6] 98 % of control | [7] 92 % of control | [8] 101 % of control

O=C(Nc1ccccc1C(F)(F)F)OCc1ccco1
inactive: dose: 100.0 mg/kg/injection, schedule: Q01DX001 (ip), vehicle: gum acacia 102 % of control and 91 % of control | dose: 100.0 mg/kg/injection, schedule: Q01DX009 (ip), vehicle: gum acacia 100 % of control | dose: 100.0 mg/kg/injection, schedule: Q04DX002 (ip), vehicle: gum acacia 95 % of control and 101 % of control | dose: 100.0 mg/kg/injection, schedule: Q04DX003 (ip), vehicle: gum acacia 94 % of control and 99 % of control | dose: 200.0 mg/kg/injection, schedule: Q01DX001 (ip), vehicle: gum acacia 98 % of control and 105 % of control | dose: 200.0 mg/kg/injection, schedule: Q01DX009 (ip), vehicle: gum acacia 97 % of control | dose: 200.0 mg/kg/injection, schedule: Q04DX002 (ip), vehicle: gum acacia 99 % of control and 108 % of control | dose: 200.0 mg/kg/injection, schedule: Q04DX003 (ip), vehicle: gum acacia 96 % of control and 92 % of control | dose: 400.0 mg/kg/injection, schedule: Q01DX001 (ip), vehicle: gum acacia 94 % of control and 95 % of control | dose: 400.0 mg/kg/injection, schedule: Q01DX009 (ip), vehicle: gum acacia 105 % of control | dose: 400.0 mg/kg/injection, schedule: Q04DX002 (ip), vehicle: gum acacia 99 % of control and 101 % of control | dose: 400.0 mg/kg/injection, schedule: Q04DX003 (ip), vehicle: gum acacia 108 % of control and 92 % of control

CCCNC(=O)OC/C=C\CC(Cl)(Cl)Cl
inactive: dose: 50.0 mg/kg/injection, schedule: Q01DX009 (ip), vehicle: Klucel (hydroxypropylcellulose) (HPC) 97 % of control | [2] 96 % of control | [3] 87 % of control | [5] 94 % of control | [6] 94 % of control | [8] 86 % of control

c1ccc2c[n+](C[n+]3ccc4ccccc4c3)ccc2c1
inactive: dose: 100.0 mg/kg/injection, schedule: Q04DX003 (ip), vehicle: saline 103 % of control | dose: 200.0 mg/kg/injection, schedule: Q04DX003 (ip), vehicle: saline 105 % of control

CN(C)c1ccc(C(C#N)C(C#N)c2ccccc2)cc1 (configuration not stated)
inactive: dose: 50.0 mg/kg/injection, schedule: Q01DX001 (ip), vehicle: Klucel (hydroxypropylcellulose) (HPC) 88 % of control | [1] 88 % of control | [4] 88 % of control

CCOC(=O)c1cc2ccccc2oc1=O
inactive: dose: 25.0 mg/kg/injection, schedule: Q01DX009 (ip), vehicle: saline with Tween-80 102 % of control | dose: 25.0 mg/kg/injection, schedule: Q04DX003 (ip), vehicle: saline with Tween-80 103 % of control | dose: 50.0 mg/kg/injection, schedule: Q01DX001 (ip), vehicle: other 95 % of control | dose: 50.0 mg/kg/injection, schedule: Q01DX009 (ip), vehicle: saline with Tween-80 98 % of control | dose: 50.0 mg/kg/injection, schedule: Q04DX003 (ip), vehicle: saline with Tween-80 98 % of control and 89 % of control | [9] 94 % of control | dose: 100.0 mg/kg/injection, schedule: Q04DX003 (ip), vehicle: saline with Tween-80 100 % of control and 103 % of control

CCCNC(=O)Nc1ccc(Cl)c(Cl)c1
inactive: [10] 100 % of control | [11] 93 % of control | [12] 92 % of control

Cc1ccc(Cl)cc1NC(=O)Oc1ccc(C(C)(C)C)cc1Br
inactive: [2] 91 % of control | [5] 100 % of control | dose: 400.0 mg/kg/injection, schedule: Q01DX009 (ip), vehicle: Klucel (hydroxypropylcellulose) (HPC) 108 % of control

CSc1ccnc2[nH]ncc12
inactive: dose: 100.0 mg/kg/injection, schedule: Q04DX002 (ip), vehicle: DMSO 94 % of control | dose: 200.0 mg/kg/injection, schedule: Q04DX002 (ip), vehicle: DMSO 105 % of control

CCCC1c2ccccc2-c2ccc(C(C)=O)cc21 (configuration not stated)
inactive: dose: 100.0 mg/kg/injection, schedule: Q01DX001 (ip), vehicle: carboxymethylcellulose (CMC) 97 % of control | dose: 200.0 mg/kg/injection, schedule: Q01DX001 (ip), vehicle: carboxymethylcellulose (CMC) 92 % of control | [13] 97 % of control

COc1cccc(C=O)c1[N+](=O)[O-]
inactive: dose: 100.0 mg/kg/injection, schedule: Q04DX002 (ip), vehicle: Klucel (hydroxypropylcellulose) (HPC) 104 % of control | dose: 200.0 mg/kg/injection, schedule: Q04DX002 (ip), vehicle: Klucel (hydroxypropylcellulose) (HPC) 108 % of control | dose: 400.0 mg/kg/injection, schedule: Q04DX002 (ip), vehicle: Klucel (hydroxypropylcellulose) (HPC) 97 % of control

Cc1nc(N)[nH]c(=O)c1CCCNS(=O)(=O)c1ccc(N)cc1
inactive: dose: 50.0 mg/kg/injection, schedule: Q01DX001 (ip), vehicle: saline 100 % of control | [10] 97 % of control | [11] 100 % of control | [12] 94 % of control

CCCCCCCCCCCCC(=O)N1CCCC1
inactive: dose: 100.0 mg/kg/injection, schedule: Q04DX002 (ip), vehicle: saline 104 % of control | dose: 200.0 mg/kg/injection, schedule: Q04DX002 (ip), vehicle: saline 104 % of control | dose: 400.0 mg/kg/injection, schedule: Q04DX002 (ip), vehicle: saline 96 % of control

COC(=O)c1cc(C(=O)OC)c(C(=O)OC)cc1C(=O)OC
inactive: [9] 101 % of control | [14] 98 % of control | [15] 98 % of control

Nc1c(Cl)ncnc1Nc1ccc(O)cc1
inactive: dose: 25.0 mg/kg/injection, schedule: Q04DX003 (ip), vehicle: Klucel (hydroxypropylcellulose) (HPC) 96 % of control | dose: 50.0 mg/kg/injection, schedule: Q04DX003 (ip), vehicle: Klucel (hydroxypropylcellulose) (HPC) 96 % of control | [3] 101 % of control

Oc1ccc(N=Nc2ccccc2)c(O)c1.Oc1ccc(N=Nc2ccccc2)c(O)c1.[Cu]
inactive: dose: 50.0 mg/kg/injection, schedule: Q01DX001 (ip), vehicle: carboxymethylcellulose (CMC) 90 % of control | [13] 87 % of control

O=C1NC(=O)C2(CCCC2)N1
inactive: [10] 102 % of control | [11] 108 % of control | [12] 102 % of control

O=C(C[n+]1cccc(OC(=O)c2ccccc2)c1)c1ccc(-c2ccccc2)cc1
inactive: dose: 75.0 mg/kg/injection, schedule: Q04DX003 (ip), vehicle: Klucel (hydroxypropylcellulose) (HPC) 100 % of control | [1] 100 % of control | dose: 150.0 mg/kg/injection, schedule: Q04DX003 (ip), vehicle: Klucel (hydroxypropylcellulose) (HPC) 91 % of control | [4] 97 % of control | dose: 300.0 mg/kg/injection, schedule: Q04DX003 (ip), vehicle: Klucel (hydroxypropylcellulose) (HPC) 96 % of control | [7] 101 % of control

S=C=NCc1ccc(Cl)cc1
inactive: dose: 6.25 mg/kg/injection, schedule: Q01DX009 (ip), vehicle: Klucel (hydroxypropylcellulose) (HPC) 103 % of control | dose: 12.5 mg/kg/injection, schedule: Q01DX009 (ip), vehicle: Klucel (hydroxypropylcellulose) (HPC) 92 % of control | dose: 25.0 mg/kg/injection, schedule: Q01DX009 (ip), vehicle: Klucel (hydroxypropylcellulose) (HPC) 95 % of control

O=S(=O)(O)Cc1ccccc1O
inactive: [9] 96 % of control | [14] 102 % of control | [15] 93 % of control
